Reference: article PMC6193938, “Characterization of a novel AICARFT inhibitor which potently elevates ZMP and has anti-tumor activity in murine models” (Scientific Reports, 2018)

Columns and labels:
NCI-H460 xenografts = assay: Pharmacodynamic response of tumor metabolites, single PO dose, low folate chow; format: in vivo, mouse
Text: (§1) Figure 4 Pharmacodynamic response of ZMP (purple), AICAR (blue), […] (green), dUMP (red), AMP (aqua) & GMP (orange) metabolites in tumors following a single PO dose of LSN3213128 in athymic nude mice.

A9 murine tumors = assay: Pharmacodynamic response of tumor metabolites, single PO dose, standard chow; format: in vivo, mouse
Text: as §1

[1] = tested on: MDA-MB-231met2 xenografts; assay: as above; format: in vivo, mouse
Text: as §1

A9 tumor = assay: Antitumor efficacy and tumor metabolites, A9 tumor model; format: in vivo, mouse; conditions: A9 tumors
[2] = tested on: AMPK T172 phosphorylation in A9 tumors; assay: Western analysis of tumors; format: in vivo, mouse; conditions: 100 mg/kg x12 PO
ALK4 = biological target: T1, ALK4 (Homo sapiens, UniProt P36896); assay: CEREP protein kinase assay; format: biochemical
T1 construct: purchased CEREP Panlabs (Eurofins)
T1 sequence (P36896 24-505): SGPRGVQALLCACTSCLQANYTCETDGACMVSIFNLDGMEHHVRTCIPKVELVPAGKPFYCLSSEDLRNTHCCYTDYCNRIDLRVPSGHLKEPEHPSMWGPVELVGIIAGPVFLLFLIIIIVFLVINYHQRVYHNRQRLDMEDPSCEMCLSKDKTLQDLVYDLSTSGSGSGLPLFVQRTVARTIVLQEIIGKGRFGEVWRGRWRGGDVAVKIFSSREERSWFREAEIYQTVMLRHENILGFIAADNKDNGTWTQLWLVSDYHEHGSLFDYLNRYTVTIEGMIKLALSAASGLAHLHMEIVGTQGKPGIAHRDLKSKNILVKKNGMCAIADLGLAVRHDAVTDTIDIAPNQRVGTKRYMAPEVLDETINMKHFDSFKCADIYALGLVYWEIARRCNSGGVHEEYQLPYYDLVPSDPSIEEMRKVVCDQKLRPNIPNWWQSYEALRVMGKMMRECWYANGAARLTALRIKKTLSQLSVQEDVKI

AMPKA = assay: CEREP protein kinase assay; format: biochemical
FMS = biological target: T2, FMS (Homo sapiens, UniProt P07333); assay: CEREP protein kinase assay; format: biochemical
T2 construct: purchased CEREP Panlabs (Eurofins)

HIPK2 = biological target: T3, HIPK2 (Homo sapiens, UniProt Q9H2X6); assay: CEREP protein kinase assay; format: biochemical
T3 construct: purchased CEREP Panlabs (Eurofins)

IGF1R = biological target: T4, IGF1R (Homo sapiens, UniProt P08069); assay: CEREP protein kinase assay; format: biochemical
T4 construct: purchased CEREP Panlabs (Eurofins)

JAK3 = biological target: T5, JAK3 (Homo sapiens, UniProt P52333); assay: CEREP protein kinase assay; format: biochemical
T5 construct: purchased CEREP Panlabs (Eurofins)
T5 sequence (P52333 1-1124): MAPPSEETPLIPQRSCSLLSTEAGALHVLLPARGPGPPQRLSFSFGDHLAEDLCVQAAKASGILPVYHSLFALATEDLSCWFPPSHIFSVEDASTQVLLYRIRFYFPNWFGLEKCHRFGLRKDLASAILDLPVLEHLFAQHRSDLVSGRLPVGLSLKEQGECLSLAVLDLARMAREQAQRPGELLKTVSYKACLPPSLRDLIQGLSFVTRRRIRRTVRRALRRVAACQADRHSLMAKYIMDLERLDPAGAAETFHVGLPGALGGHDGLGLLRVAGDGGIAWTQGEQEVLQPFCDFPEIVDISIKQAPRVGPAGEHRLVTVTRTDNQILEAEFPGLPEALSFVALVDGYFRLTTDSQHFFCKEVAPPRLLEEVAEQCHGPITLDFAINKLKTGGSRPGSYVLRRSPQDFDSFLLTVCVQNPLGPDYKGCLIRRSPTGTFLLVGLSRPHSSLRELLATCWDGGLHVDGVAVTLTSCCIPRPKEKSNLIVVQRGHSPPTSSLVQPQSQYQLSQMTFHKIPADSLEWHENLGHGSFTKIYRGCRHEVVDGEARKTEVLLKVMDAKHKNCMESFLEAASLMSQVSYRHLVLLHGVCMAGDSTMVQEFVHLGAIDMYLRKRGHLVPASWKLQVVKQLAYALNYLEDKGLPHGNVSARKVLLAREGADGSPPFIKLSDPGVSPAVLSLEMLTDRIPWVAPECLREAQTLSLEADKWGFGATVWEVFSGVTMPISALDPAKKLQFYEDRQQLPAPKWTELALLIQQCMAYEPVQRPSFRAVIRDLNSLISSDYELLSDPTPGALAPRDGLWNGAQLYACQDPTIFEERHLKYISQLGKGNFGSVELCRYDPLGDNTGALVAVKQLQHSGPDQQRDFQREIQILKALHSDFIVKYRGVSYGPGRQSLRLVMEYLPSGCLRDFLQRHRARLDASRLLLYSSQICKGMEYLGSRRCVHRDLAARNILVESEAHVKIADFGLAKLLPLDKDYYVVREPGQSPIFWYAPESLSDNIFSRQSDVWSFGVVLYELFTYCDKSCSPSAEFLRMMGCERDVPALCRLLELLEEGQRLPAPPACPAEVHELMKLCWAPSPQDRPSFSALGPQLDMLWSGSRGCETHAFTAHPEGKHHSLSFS

PDGFRa = biological target: T6, PDGFRa (Homo sapiens, UniProt P16234); assay: CEREP protein kinase assay; format: biochemical
T6 construct: purchased CEREP Panlabs (Eurofins)

PKCb2 = biological target: T7, PKCb2 (Homo sapiens, UniProt P05771); assay: CEREP protein kinase assay; format: biochemical
T7 construct: purchased CEREP Panlabs (Eurofins)

PYK2 = biological target: T8, PYK2 (Homo sapiens, UniProt Q14289); assay: CEREP protein kinase assay; format: biochemical
T8 construct: purchased CEREP Panlabs (Eurofins)

[3] = MDA-MB-231met2 tumors, 4 h post treatment

T3 sequence (Q9H2X6 whole entry): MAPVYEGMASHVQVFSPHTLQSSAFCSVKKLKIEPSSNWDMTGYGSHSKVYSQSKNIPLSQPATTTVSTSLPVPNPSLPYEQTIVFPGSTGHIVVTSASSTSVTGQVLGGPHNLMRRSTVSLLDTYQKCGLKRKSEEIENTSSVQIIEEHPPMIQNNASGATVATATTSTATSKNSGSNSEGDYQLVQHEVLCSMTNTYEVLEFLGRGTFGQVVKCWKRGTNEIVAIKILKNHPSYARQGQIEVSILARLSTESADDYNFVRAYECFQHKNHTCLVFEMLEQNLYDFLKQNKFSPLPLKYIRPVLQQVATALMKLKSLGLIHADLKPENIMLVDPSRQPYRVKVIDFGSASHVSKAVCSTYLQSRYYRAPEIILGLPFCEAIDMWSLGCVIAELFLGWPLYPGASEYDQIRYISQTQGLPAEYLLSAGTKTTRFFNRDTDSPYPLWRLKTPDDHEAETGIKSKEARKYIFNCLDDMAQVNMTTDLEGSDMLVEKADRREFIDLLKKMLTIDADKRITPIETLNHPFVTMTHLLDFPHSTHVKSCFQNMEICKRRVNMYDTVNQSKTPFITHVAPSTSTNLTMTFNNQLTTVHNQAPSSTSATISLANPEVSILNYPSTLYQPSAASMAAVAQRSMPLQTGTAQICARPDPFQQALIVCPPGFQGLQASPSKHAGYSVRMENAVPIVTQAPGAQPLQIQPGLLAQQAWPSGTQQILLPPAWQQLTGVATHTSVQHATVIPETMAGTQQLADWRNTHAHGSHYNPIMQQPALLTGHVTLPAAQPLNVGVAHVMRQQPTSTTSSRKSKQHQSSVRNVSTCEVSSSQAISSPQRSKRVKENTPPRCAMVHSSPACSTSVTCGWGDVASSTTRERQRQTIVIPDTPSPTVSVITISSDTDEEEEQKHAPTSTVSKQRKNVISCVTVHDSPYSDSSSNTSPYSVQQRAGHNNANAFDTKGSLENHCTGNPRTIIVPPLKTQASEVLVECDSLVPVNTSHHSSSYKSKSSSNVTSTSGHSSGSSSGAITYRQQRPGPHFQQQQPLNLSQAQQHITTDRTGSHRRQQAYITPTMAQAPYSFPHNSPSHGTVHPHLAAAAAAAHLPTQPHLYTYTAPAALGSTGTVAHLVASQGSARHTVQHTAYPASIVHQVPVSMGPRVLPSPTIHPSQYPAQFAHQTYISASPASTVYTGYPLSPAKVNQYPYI
T4 sequence (P08069 31-1367): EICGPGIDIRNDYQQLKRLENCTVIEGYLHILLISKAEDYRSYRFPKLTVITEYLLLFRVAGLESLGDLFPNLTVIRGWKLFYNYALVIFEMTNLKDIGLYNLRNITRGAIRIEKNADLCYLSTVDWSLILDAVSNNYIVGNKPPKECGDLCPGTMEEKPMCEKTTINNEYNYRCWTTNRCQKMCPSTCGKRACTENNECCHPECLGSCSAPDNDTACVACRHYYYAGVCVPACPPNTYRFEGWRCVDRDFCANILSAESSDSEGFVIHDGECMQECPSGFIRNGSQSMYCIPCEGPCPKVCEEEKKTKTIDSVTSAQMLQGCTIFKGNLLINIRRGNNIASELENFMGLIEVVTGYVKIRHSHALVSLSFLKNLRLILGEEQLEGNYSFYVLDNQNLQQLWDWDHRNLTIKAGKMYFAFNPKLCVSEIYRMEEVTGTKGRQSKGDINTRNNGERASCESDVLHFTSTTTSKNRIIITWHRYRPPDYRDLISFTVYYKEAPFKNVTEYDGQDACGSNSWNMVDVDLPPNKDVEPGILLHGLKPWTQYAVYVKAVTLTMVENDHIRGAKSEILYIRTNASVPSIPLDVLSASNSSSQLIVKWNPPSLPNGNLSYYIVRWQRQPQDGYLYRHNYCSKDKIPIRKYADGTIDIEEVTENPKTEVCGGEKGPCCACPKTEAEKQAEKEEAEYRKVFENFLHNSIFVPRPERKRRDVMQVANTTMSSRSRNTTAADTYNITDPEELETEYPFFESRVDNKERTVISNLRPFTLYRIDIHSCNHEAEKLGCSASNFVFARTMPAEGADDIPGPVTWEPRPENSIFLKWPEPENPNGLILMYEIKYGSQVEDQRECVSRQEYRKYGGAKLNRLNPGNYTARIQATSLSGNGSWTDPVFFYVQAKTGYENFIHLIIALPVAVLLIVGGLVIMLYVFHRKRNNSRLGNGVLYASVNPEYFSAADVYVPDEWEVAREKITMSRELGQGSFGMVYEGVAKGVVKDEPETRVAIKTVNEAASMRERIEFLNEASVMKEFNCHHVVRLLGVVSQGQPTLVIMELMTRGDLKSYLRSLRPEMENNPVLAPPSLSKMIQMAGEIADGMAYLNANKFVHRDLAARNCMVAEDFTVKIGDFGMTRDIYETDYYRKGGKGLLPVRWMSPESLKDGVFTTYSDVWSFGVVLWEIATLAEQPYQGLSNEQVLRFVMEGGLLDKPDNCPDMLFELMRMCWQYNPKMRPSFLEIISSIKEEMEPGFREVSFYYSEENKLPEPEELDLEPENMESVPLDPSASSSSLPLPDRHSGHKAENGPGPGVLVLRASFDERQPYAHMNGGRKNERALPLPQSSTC
T6 sequence (P16234 24-1089): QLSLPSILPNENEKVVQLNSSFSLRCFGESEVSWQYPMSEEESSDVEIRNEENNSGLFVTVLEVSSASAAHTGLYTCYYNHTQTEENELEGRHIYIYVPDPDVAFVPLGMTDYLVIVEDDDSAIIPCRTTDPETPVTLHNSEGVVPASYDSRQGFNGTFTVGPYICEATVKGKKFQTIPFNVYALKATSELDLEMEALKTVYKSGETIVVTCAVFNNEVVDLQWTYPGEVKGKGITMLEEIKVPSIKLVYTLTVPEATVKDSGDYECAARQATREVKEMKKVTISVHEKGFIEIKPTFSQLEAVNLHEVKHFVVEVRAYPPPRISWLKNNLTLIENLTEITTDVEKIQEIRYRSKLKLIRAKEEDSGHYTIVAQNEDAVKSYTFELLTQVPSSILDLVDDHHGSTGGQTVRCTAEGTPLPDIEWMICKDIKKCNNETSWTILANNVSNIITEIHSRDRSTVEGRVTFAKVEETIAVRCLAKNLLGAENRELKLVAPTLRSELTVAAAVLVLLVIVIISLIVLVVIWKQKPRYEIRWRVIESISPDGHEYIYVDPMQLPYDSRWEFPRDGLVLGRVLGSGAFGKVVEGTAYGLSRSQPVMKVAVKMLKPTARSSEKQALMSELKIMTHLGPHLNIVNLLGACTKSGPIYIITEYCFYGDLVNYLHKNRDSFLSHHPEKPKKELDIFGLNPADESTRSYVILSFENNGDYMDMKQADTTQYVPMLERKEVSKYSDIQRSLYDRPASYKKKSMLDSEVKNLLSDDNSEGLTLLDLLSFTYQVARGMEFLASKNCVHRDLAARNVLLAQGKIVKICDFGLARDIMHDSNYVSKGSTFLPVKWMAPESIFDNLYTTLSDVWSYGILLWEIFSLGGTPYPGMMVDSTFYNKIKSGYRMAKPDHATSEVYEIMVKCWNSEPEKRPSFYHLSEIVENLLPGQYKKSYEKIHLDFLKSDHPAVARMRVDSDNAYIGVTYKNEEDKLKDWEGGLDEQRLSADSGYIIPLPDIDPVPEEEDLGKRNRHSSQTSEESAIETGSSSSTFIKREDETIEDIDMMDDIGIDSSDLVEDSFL
T7 sequence (P05771 1-673 isoform P05771-2): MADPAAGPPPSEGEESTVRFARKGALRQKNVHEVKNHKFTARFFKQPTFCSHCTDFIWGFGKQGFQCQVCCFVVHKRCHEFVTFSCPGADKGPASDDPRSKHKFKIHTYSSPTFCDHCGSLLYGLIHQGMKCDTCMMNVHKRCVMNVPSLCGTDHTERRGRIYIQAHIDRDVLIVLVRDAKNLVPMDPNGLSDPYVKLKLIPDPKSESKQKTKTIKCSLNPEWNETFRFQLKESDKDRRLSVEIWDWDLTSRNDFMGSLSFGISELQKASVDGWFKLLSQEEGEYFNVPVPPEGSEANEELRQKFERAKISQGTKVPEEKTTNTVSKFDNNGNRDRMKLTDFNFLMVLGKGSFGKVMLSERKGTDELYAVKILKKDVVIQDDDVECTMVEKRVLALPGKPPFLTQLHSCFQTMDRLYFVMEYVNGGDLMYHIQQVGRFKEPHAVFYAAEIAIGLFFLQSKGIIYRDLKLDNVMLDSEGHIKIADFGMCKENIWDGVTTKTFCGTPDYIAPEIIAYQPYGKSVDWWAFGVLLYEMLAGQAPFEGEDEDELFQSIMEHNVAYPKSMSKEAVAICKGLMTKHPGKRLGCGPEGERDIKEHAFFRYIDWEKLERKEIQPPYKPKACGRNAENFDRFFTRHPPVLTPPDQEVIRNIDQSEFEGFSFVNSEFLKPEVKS

With `O=c1[nH]ccc2cc(F)c(NS(=O)(=O)c3ccc(N4CC[C@@H](O)C4)s3)cc12` [LSN3213128, N-(6-Fluoro-1-oxo-1,2-dihydroisoquinolin-7-yl)-5-[(3R)-3-hydroxypyrrolidin-1-yl]thiophene-2-sulfonamide] the “tumor dUMP levels” value (NCI-H460 xenografts; low folate chow, 4 h, up to 60 mg/kg) was “unchanged”, the “dose at which tumor ZMP response appears to saturate” value (NCI-H460 xenografts; nude mice on low folate chow, 4 h post PO dose) was 1 mg/kg and the “dose after which tumor ZMP response appeared to saturate” value (A9 murine tumors; nude mice on standard chow, 4 h post PO dose) was 30 mg/kg. The “tumor dUMP levels” value (A9 murine tumors; standard chow, 4 h, up to 100 mg/kg) was “did not rise”, the “change in tumor ZMP” value [1, 3] was 15 fold and the “change in tumor purine levels (AMP and GMP)” value [1, 3] was “twofold”. The “dose at which tumor ZMP response appeared to saturate” value ([1]; MDA-MB-231met2 xenografts, nude mice on standard chow, 4 h post PO dose) was 10 mg/kg, the “tumor dUMP levels” value ([1]; MDA-MB-231met2 xenografts, standard chow, 4 h, up to 100 mg/kg) was “did not rise” and the “tumor dUMP” value (A9 tumor; 100 mg/kg QDx12 dose group) was 0.72 ± 0.41 µM. For the same compound, the “tumor ZMP levels” value (A9 tumor; after 12 days of dosing, 100 mg/kg) was “dramatically elevated”, the “AMPK T172 phosphorylation levels in vivo” value [2] was “showed no change” and the inhibition at 0.2 µM (ALK4; @ 0.2 uM) was -10.5%. For the same compound, the inhibition at 2 µM (ALK4; @ 2 uM) was 10.4%, the inhibition at 20 µM (ALK4; @ 20 uM) was 55% and the “% Inhibition” value (AMPKA; @ 0.2 uM) was -3.69 (26.6, n=2) %. For the same compound, the “% Inhibition” value (AMPKA; @ 2 uM) was 9.14 (16.7, n=2) %, the “% Inhibition” value (AMPKA; @ 20 uM) was 9.08 (3.34, n=2) % and the inhibition at 0.2 µM (FMS; @ 0.2 uM) was 2.06%. The inhibition at 2 µM (FMS; @ 2 uM) was 19.2%, the inhibition at 20 µM (FMS; @ 20 uM) was 48.4% and the inhibition at 0.2 µM (HIPK2; @ 0.2 uM) was -9.39%. It also gave an inhibition at 2 µM (HIPK2; @ 2 uM) of 6.25%, an inhibition at 20 µM (HIPK2; @ 20 uM) of 14.1% and an inhibition at 0.2 µM (IGF1R; @ 0.2 uM) of -0.761%. The inhibition at 2 µM (IGF1R; @ 2 uM) was 6.61%, the inhibition at 20 µM (IGF1R; @ 20 uM) was 60.3% and the inhibition at 0.2 µM (JAK3; @ 0.2 uM) was -5.81%. For the same compound, the inhibition at 2 µM (JAK3; @ 2 uM) was 2.78%, the inhibition at 20 µM (JAK3; @ 20 uM) was 28.6% and the inhibition at 0.2 µM (PDGFRa; @ 0.2 uM) was -10.5%. For the same compound, the inhibition at 2 µM (PDGFRa; @ 2 uM) was 12.3%, the inhibition at 20 µM (PDGFRa; @ 20 uM) was 44.9% and the inhibition at 0.2 µM (PKCb2; @ 0.2 uM) was -3.72%. It also gave an inhibition at 2 µM (PKCb2; @ 2 uM) of -1.04%, an inhibition at 20 µM (PKCb2; @ 20 uM) of -3.76% and an inhibition at 0.2 µM (PYK2; @ 0.2 uM) of -25.1%. For the same compound, the inhibition at 2 µM (PYK2; @ 2 uM) was -1.17% and the inhibition at 20 µM (PYK2; @ 20 uM) was 16.5%.
